Measured values published in the CheMixHub viscosity set.
Where “and” joins values, the source holds several entries; their conditions need not be identical. Equal values may be shown once. ± gives the uncertainty stated by the source.

Assay: xn = mol fraction of the nth substance listed

CC(O)CC(C)(C)O (stereo not drawn) + O=[N+]([O-])c1ccccc1
viscosity [mPa·s], 101 kPa
Conditions | x1 = 0.0918 | x1 = 0.1905 | x1 = 0.2926 | x1 = 0.3853 | x1 = 0.4886 | x1 = 0.5862 | x1 = 0.6895 | x1 = 0.7727 | x1 = 0.8991
308.15 K | 1.724 ± 0.17 | 1.903 ± 0.19 | 2.194 ± 0.22 | 2.574 ± 0.26 | 3.288 ± 0.33 | 4.074 ± 0.41 | 5.512 ± 0.55 | 7.423 ± 0.74 | 12.38 ± 1.2
318.15 K | 1.332 ± 0.13 | 1.478 ± 0.15 | 1.703 ± 0.17 | 2.012 ± 0.2 | 2.606 ± 0.26 | 3.222 ± 0.32 | 4.571 ± 0.46 | 6.127 ± 0.61 | 10.82 ± 1.1

CCCCOCCOCCO + ClC(Cl)Cl
298.15 K, 101.33 kPa
Conditions | viscosity [mPa·s]
x1 = 0.0036 | 0.538 ± 0.015
x1 = 0.013 | 0.559 ± 0.015
x1 = 0.0198 | 0.572 ± 0.016
x1 = 0.0347 | 0.607 ± 0.017
x1 = 0.0576 | 0.674 ± 0.018
x1 = 0.0854 | 0.755 ± 0.02
x1 = 0.1232 | 0.882 ± 0.023
x1 = 0.1802 | 1.118 ± 0.028
x1 = 0.2156 | 1.281 ± 0.031
x1 = 0.2883 | 1.65 ± 0.039
x1 = 0.3513 | 2.01 ± 0.047
x1 = 0.427 | 2.46 ± 0.057
x1 = 0.486 | 2.828 ± 0.065
x1 = 0.539 | 3.148 ± 0.072
x1 = 0.6168 | 3.591 ± 0.081
x1 = 0.6945 | 4.021 ± 0.091
x1 = 0.7358 | 4.19 ± 0.094
x1 = 0.7844 | 4.415 ± 0.099
x1 = 0.8159 | 4.545 ± 0.1
x1 = 0.859 | 4.758 ± 0.11
x1 = 0.9079 | 4.913 ± 0.11
x1 = 0.94 | 5.021 ± 0.11
x1 = 0.9514 | 5.04 ± 0.11
x1 = 0.9582 | 5.061 ± 0.11
x1 = 0.9656 | 5.083 ± 0.11
x2 = 0.0054 | 5.185 ± 0.11

Cc1cccc(C)c1 + CCCO
viscosity [mPa·s], 100 kPa
Conditions | 298.15 K | 308.15 K
x2 = 0.0641 | 0.5986 ± 0.072 | 0.5469 ± 0.066
x2 = 0.125 | 0.604 ± 0.073 | 0.5561 ± 0.067
x2 = 0.2247 | 0.6335 ± 0.076 | 0.5935 ± 0.071
x2 = 0.3538 | 0.694 ± 0.083 | 0.633 ± 0.076
x2 = 0.4693 | 0.779 ± 0.094 | 0.6938 ± 0.083
x2 = 0.5733 | 0.888 ± 0.11 | 0.7826 ± 0.094
x2 = 0.6675 | 1.006 ± 0.12 | 0.8918 ± 0.11
x2 = 0.7531 | 1.144 ± 0.14 | 0.964 ± 0.12
x2 = 0.8313 | 1.316 ± 0.16 | 1.102 ± 0.13
x2 = 0.903 | 1.509 ± 0.18 | 1.277 ± 0.15
x2 = 0.969 | 1.796 ± 0.22 | 1.464 ± 0.18

Cc1cccc(C)c1 + CCCCO
308.15 K, 101 kPa
Conditions | viscosity [mPa·s]
x2 = 0.0525 | 0.471 ± 0.01
x2 = 0.1036 | 0.54 ± 0.011
x2 = 0.19 | 0.553 ± 0.012
x2 = 0.307 | 0.583 ± 0.012
x2 = 0.4171 | 0.631 ± 0.013
x2 = 0.5209 | 0.733 ± 0.015
x2 = 0.619 | 0.815 ± 0.017
x2 = 0.7117 | 0.947 ± 0.02
x2 = 0.7995 | 1.131 ± 0.024
x2 = 0.8828 | 1.323 ± 0.028
x2 = 0.9619 | 1.556 ± 0.032

NCCCO + CC(C)O
Conditions | viscosity [mPa·s]
293.15 K, 101 kPa, x1 = 0.7002 | 19.25 ± 0.83

O=S(=O)(Cl)Cl + c1ccccc1
298.15 K, 101 kPa
Conditions | viscosity [mPa·s]
x1 = 0.176 | 0.6172 ± 0.016
x1 = 0.43 | 0.6463 ± 0.017
x1 = 0.699 | 0.6673 ± 0.017
x1 = 0.734 | 0.6691 ± 0.017
x1 = 0.845 | 0.6757 ± 0.017

NCCCO + CCCC[N+](CCCC)(CCCC)CCCC.[Br-]
viscosity, 101.33 kPa
Conditions | 293.15 K | 298.15 K | 303.15 K | 308.15 K | 313.15 K | 318.15 K | 323.15 K
x1 = 0.8 | 113.9 ± 7.5 mPa·s | 84.69 ± 5.9 mPa·s | 63.71 ± 4.5 mPa·s | 49.65 ± 3.6 mPa·s | 38.79 ± 3.1 mPa·s | 30.76 ± 2.7 mPa·s | 24.94 ± 2.4 mPa·s
x1 = 0.9 | 79.29 ± 7.6 mPa·s and 65.55 ± 5.9 mPa·s | 60.03 ± 5.6 mPa·s and 50.16 ± 4 mPa·s | 46.01 ± 4.3 mPa·s and 38.6 ± 3.3 mPa·s | 35.84 ± 3.6 mPa·s and 29.98 ± 2.8 mPa·s | 28.31 ± 3 mPa·s and 23.97 ± 2.5 mPa·s | 22.73 ± 2.6 mPa·s and 19.27 ± 2.4 mPa·s | 18.62 ± 2.4 mPa·s and 15.76 ± 2.3 mPa·s

O=S1(=O)CCCC1 + CCOC(C)=O
303.15 K, 101 kPa
Conditions | viscosity [mPa·s]
x1 = 0.8548 | 5.285 ± 0.045
x1 = 0.9799 | 9.205 ± 0.073

Cc1cccc(C)c1 + CC(C)CC(C)(C)C
308.15 K, 101 kPa
Conditions | viscosity [mPa·s]
x2 = 0.0651 | 0.5188 ± 0.0054
x2 = 0.1364 | 0.5018 ± 0.0052
x2 = 0.2067 | 0.4888 ± 0.0051
x2 = 0.3021 | 0.4746 ± 0.005
x2 = 0.392 | 0.462 ± 0.0049
x2 = 0.4939 | 0.4518 ± 0.0048
x2 = 0.6007 | 0.4435 ± 0.0047
x2 = 0.7283 | 0.4385 ± 0.0047
x2 = 0.859 | 0.4352 ± 0.0047
